These molecules were tested against T1, human Nav1.7 channels (Homo sapiens, UniProt Q15858) (assay: FRET assay, human Nav1.7 (EFS on FDSS)). Conditions: CHO cells expressing human Nav1.7, read-out: IC50 against Nav1.7.
T1 construct: expressed in transfected cells; host or cells: CHO
Assay type: cell-based
Procedure: The inhibitory activities of compounds against voltage gated sodium channels are determined by methodology well known in the art.
The ability of the aryl substituted carboxamide derivatives of the formula (I) to inhibit the NaV1.3, Nav1.7 and Nav1.5 channels is measured by Fluorescence Resonance Energy Transfer (FRET) assay and electrophysiology assay described below.
This screen is used to determine the effects of compounds on human Nav1.3, human Nav1.7, and human Nav1.5 channels, utilising electrical field stimulation (EFS) system in 96-well plate format on FDSS (Hamamatsu Photonics) platform. The change of membrane potential is monitored with FRET dye pair, oxonol (DiSBAC2(3)) and coumarin (CC2-DMPE).
CHO cells expressing human Nav1.7 channels are grown in T225 flasks, in a 5% CO2 humidified incubator to about 80% confluence. Media composition consists of HAM/F12 with Glutamax 1.10% FCS, 100 units/mL Penicillin and 100 microgram/mL Hygromycin.
Protocol: • Seed each cell lines (1×10^5 cells/well) into poly-D-lysine coated 96-well plates prior to experimentation. • Incubate at 37° C. in 5% CO2 for 24 hours. • Wash each well with assay buffer (140 mM NaCl, 4.5 mM KCl, 10 mM D-Glucose, 2 mM CaCl2, 1 mM MgCl2, 10 mM HEPES, pH 7.4 adjusted with NaOH) twice. • Add 1st loading solution containing 10 microM CC2-DMPE and 0.06% Pluronic F-127 in assay buffer. • Incubate the plate at room temperature in dark for 1 hour. • Remove 1st loading solution and added 2nd loading solution containing 15 microM DiSBAC2(3), 0.555 mM VABSC-1 and 0.004% Pluronic F-127 in assay buffer. • Place the plate under the dark at room temperature for 25 minutes. • Add compound solutions into the assay plate. • Set the assay plate in FDSS and placed an EFS device on the plate. • Measure EFS-induced fluorescent response by FDSS.
The data are analyzed and reported as normalized ratios of intensities measured at […]. The process of calculating these ratios is performed as follows:
This analysis is performed using a computerized specific program designed for FDSS generated data. Fluorescence ratio values are plotted using XLfit to determine an IC50 value for each compound.

T1 sequence (Q15858 whole entry): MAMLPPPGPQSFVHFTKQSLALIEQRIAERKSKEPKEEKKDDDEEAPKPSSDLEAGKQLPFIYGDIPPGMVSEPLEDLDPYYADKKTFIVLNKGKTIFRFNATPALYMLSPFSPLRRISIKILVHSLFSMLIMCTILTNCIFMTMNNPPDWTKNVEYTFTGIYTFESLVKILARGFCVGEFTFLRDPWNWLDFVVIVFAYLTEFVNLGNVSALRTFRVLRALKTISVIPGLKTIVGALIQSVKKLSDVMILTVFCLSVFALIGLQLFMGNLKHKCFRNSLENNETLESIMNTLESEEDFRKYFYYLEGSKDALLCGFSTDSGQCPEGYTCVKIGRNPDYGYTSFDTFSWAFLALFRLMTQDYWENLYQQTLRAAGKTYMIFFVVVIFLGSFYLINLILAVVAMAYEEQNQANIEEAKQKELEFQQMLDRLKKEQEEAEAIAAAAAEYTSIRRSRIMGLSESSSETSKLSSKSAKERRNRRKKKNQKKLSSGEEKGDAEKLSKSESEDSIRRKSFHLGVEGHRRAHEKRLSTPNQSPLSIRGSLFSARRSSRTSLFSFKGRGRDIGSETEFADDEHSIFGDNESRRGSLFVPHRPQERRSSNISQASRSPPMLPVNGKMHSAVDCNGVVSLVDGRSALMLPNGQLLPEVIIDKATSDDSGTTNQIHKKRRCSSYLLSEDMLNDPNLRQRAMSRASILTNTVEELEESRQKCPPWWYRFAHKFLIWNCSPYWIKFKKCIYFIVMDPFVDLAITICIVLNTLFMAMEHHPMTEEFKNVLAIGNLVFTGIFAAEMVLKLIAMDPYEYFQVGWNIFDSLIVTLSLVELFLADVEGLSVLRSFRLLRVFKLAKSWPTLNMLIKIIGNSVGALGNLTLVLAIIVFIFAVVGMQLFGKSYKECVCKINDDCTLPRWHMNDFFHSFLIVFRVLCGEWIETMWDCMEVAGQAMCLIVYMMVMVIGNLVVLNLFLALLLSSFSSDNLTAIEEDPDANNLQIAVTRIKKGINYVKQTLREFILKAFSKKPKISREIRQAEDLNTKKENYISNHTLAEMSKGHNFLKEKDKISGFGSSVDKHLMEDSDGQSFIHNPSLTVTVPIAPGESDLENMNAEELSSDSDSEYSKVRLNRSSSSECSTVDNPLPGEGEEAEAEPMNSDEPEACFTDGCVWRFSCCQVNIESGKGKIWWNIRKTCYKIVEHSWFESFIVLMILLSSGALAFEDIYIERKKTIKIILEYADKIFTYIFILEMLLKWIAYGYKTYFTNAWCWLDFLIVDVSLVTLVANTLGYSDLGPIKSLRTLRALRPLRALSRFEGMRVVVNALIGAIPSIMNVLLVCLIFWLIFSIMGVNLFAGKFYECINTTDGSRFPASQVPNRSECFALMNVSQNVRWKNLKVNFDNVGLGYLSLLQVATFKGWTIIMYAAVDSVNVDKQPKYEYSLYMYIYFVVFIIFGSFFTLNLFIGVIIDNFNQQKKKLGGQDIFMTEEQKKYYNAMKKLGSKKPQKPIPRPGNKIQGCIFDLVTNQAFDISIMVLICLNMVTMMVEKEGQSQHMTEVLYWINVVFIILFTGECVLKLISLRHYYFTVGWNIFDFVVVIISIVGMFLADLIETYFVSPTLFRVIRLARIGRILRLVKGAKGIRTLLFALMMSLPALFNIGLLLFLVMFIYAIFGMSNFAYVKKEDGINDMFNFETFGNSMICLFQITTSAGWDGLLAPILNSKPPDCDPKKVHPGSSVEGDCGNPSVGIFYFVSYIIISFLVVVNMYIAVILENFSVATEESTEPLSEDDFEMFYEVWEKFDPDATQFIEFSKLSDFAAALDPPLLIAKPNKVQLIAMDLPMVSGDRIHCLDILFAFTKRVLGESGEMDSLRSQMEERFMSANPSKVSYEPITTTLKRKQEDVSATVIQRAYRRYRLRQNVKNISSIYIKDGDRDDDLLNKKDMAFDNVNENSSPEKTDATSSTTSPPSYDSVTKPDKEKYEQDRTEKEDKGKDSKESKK

IC50, < 1000 nM:
Cc1cc(CNC(=O)c2ccnc(NC(=O)C(C)C)c2)cnc1OCC(F)(F)F [Example 370, 2-isobutyramido-N-((5-methyl-6-(2,2,2-trifluoroethoxy)pyridin-3-yl)methyl)isonicotinamide]
Cc1cc(C(=O)NC(C)c2cnc(OCC(F)F)c(Cl)c2)cc(NC(=O)C2CC2)n1 (single isomer, unassigned) [Example 1063, N-(1-(5-chloro-6-(2,2-difluoroethoxy)pyridin-3-yl)ethyl)-2-(cyclopropanecarboxamido)-6-methylisonicotinamide]
CCCC(=O)Nc1cc(C(=O)NC(C)c2cnc(OCC(F)F)c(C)c2)ccn1 (single isomer, unassigned) [Example 633, 2-butyramido-N-(1-(6-(2,2-difluoroethoxy)-5-methylpyridin-3-yl)ethyl)isonicotinamide]
Cc1cc(C(=O)NCc2cnc(OCC(F)(F)F)c(C)c2)nc(NC(=O)C(C)C)n1 [Example 366, 2-isobutyramido-6-methyl-N-((5-methyl-6-(2,2,2-trifluoroethoxy)pyridin-3-yl)methyl)pyrimidine-4-carboxamide]
CCC(=O)Nc1cc(C(=O)NC(C)c2ccc(OCC(F)(F)F)c(Cl)c2)ccn1 (single isomer, unassigned) [Example 673, N-(1-(3-chloro-4-(2,2,2-trifluoroethoxy)phenyl)ethyl)-2-propionamidoisonicotinamide]
CCC(=O)Nc1nc(C)cc(C(=O)NC(C)c2cnc(OCC(F)(F)F)c(Cl)c2)n1 (single isomer, unassigned) [Example 214, N-(1-(5-chloro-6-(2,2,2-trifluoroethoxy)pyridin-3-yl)ethyl)-6-methyl-2-propionamidopyrimidine-4-carboxamide]
CCOc1nc(OCC(F)(F)F)ccc1CNC(=O)c1ccnc(NC(=O)CC)c1 [Example 333, N-((2-ethoxy-6-(2,2,2-trifluoroethoxy)pyridin-3-yl)methyl)-2-propionamidoisonicotinamide]
Cc1cc(C(=O)NCc2cccc(C(F)(F)F)c2)cc(NC(=O)C2CC2)n1 [Example 852, 2-(cyclopropanecarboxamido)-6-methyl-N-(3-(trifluoromethyl)benzyl)isonicotinamide]
CC(NC(=O)c1ccnc(NC(=O)C2CC2)c1)c1ccc(OCC(C)(F)F)nc1 (single isomer, unassigned) [Example 782, 2-(cyclopropanecarboxamido)-N-(1-(6-(2,2-difluoropropoxy)pyridin-3-yl)ethyl)isonicotinamide]
COc1nc(OCC(F)F)ccc1C(C)NC(=O)c1ccnc(NC(C)=O)c1 (single isomer, unassigned) [Example 1160, 2-acetamido-N-(1-(6-(2,2-difluoroethoxy)-2-methoxypyridin-3-yl)ethyl)isonicotinamide]
CCC(=O)Nc1cc(C(=O)NC(C)c2cnc(OCC(F)F)c(C)c2)ccn1 (single isomer, unassigned) [Example 552, N-(1-(6-(2,2-difluoroethoxy)-5-methylpyridin-3-yl)ethyl)-2-propionamidoisonicotinamide]
Cc1cc(C(C)NC(=O)c2ccnc(NC(=O)C(C)C)c2)cc(Cl)c1OCC(F)F (single isomer, unassigned) [Example 1210, N-(1-(3-chloro-4-(2,2-difluoroethoxy)-5-methylphenyl)ethyl)-2-isobutyramidoisonicotinamide]
CC(C)C(=O)Nc1cc(C(=O)NCc2cnc(OCC(F)(F)F)c(Br)c2)ccn1 [Example 897, N-((5-bromo-6-(2,2,2-trifluoroethoxy)pyridin-3-yl)methyl)-2-isobutyramidoisonicotinamide]
Cc1nc(OCC(F)(F)F)c(F)cc1CNC(=O)c1ccnc(NC(=O)C(C)C)c1 [Example 314, N-((5-fluoro-2-methyl-6-(2,2,2-trifluoroethoxy)pyridin-3-yl)methyl)-2-isobutyramidoisonicotinamide]
Cc1cc(C(=O)NCc2cccc(C(F)(F)F)c2F)cc(NC(=O)C(C)C)n1 [Example 876, N-(2-fluoro-3-(trifluoromethyl)benzyl)-2-isobutyramido-6-methylisonicotinamide]
Cc1cc(C(=O)NC(C)c2ccc(OCC(F)(F)C(F)(F)F)nc2)cc(NC(=O)C2CC2)n1 (single isomer, unassigned) [Example 837, 2-(cyclopropanecarboxamido)-6-methyl-N-(1-(6-(2,2,3,3,3-pentafluoropropoxy)pyridin-3-yl)ethyl)isonicotinamide]
CCc1cc(CNC(=O)c2ccnc(NC(=O)C3CC3)n2)cnc1OCC(F)F [Example 912, 2-(cyclopropanecarboxamido)-N-((6-(2,2-difluoroethoxy)-5-ethylpyridin-3-yl)methyl)pyrimidine-4-carboxamide]
Cc1cc(CNC(=O)c2ccnc(NC(=O)C(C)C)c2)ccc1OCC(F)F [Example 991, N-(4-(2,2-difluoroethoxy)-3-methylbenzyl)-2-isobutyramidoisonicotinamide]
CC(=O)Nc1cc(C(=O)NCc2ccc(OCC(F)F)c(C)c2)cc(C)n1 [Example 993, 2-acetamido-N-(4-(2,2-difluoroethoxy)-3-methylbenzyl)-6-methylisonicotinamide]
CCC(=O)Nc1cc(C(=O)NC(C)c2ccc(OCC(F)(F)F)nc2)ccn1 (single isomer, unassigned) [Example 11, 2-propionamido-N-(1-(6-(2,2,2-trifluoroethoxy)pyridin-3-yl)ethyl)isonicotinamide]
CCC(=O)Nc1cc(C(=O)NCc2ccc(O[C@H](C)C(F)(F)F)nc2)ccn1 (single isomer, unassigned) [Example 316]
Cc1cc(C(=O)NC(C)c2ccc(OCC(C)(F)F)nc2)cc(NC(=O)C2CC2)n1 (single isomer, unassigned) [Example 1064]
COc1cc(CNC(=O)c2ccnc(NC(=O)C3CC3)n2)cnc1OCC(F)(F)F [Example 444, 2-(cyclopropanecarboxamido)-N-((5-methoxy-6-(2,2,2-trifluoroethoxy)pyridin-3-yl)methyl)pyrimidine-4-carboxamide]
CC(=O)Nc1cc(C(=O)NCc2cnc(OCC(F)(F)F)c(C)c2)ccn1 [Example 367, 2-acetamido-N-((5-methyl-6-(2,2,2-trifluoroethoxy)pyridin-3-yl)methyl)isonicotinamide]
Cc1cc(C(=O)NC(C)c2cccc(SC(F)(F)F)c2)cc(NC(=O)C(C)C)n1 (single isomer, unassigned) [Example 1032, 2-isobutyramido-6-methyl-N-(1-(3-((trifluoromethyl)thio)phenyl)ethyl)isonicotinamide]
